This is an account of results in patent US10660877B2 (BRISTOL-MYERS SQUIBB COMPANY, priority 2016, dated 2020).

SMILES strings stand for the structures.

Test [1] deals with human TLR9 (Homo sapiens (Human), UniProt Q9NR96). Briefly: TLR9 inhibition reporter assay (HEK-Blue cells, SEAP reporter, ODN2006 stimulation).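 Note: compounds tested over 0.05 nM to 50 µM, 22 h incubation, inhibition taken as SEAP signal drop from agonist plus DMSO wells toward a known inhibitor control.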 Conditions: read-out: TLR9 IC50, HEK-Blue cells overexpressing human TLR9, ODN2006 5 nM.
Chain of human TLR9 (Q9NR96 26-1032): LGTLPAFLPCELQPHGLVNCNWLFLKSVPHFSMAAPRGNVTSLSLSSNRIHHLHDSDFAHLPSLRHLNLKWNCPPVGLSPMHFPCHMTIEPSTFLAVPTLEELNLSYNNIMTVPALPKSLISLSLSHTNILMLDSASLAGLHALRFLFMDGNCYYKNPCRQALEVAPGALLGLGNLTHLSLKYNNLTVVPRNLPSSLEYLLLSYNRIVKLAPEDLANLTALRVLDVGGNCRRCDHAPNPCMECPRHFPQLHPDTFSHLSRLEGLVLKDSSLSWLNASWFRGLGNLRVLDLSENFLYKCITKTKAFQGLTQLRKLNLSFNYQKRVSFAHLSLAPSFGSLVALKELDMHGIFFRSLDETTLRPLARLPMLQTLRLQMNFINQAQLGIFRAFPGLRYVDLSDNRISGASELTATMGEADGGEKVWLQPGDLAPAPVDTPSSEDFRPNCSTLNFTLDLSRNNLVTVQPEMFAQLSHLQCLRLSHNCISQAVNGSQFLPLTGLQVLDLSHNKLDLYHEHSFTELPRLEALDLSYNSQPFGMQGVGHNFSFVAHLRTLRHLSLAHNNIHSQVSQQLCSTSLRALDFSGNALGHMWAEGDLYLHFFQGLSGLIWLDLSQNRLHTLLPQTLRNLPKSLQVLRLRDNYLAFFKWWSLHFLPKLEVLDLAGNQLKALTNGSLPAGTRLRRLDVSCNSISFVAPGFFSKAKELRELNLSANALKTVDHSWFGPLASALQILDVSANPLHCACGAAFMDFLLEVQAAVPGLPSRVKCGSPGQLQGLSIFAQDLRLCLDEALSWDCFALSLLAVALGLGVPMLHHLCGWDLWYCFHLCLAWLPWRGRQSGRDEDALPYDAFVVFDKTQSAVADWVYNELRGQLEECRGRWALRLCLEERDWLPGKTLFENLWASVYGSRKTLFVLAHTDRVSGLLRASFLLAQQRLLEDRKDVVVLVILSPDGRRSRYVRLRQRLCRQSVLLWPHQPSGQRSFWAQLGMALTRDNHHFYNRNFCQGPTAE
Test [2] addresses human TLR7 (Homo sapiens (Human), UniProt Q9NYK1). Nature of the test: TLR7 inhibition reporter assay (HEK-Blue cells, SEAP reporter, gardiquimod stimulation). The class given is cell-based. Conditions: HEK-Blue cells overexpressing human TLR7, gardiquimod 7.5 μM.
For test [3], the target named is human TLR8 (Homo sapiens (Human), UniProt Q9NR97). Nature of the test: TLR8 inhibition reporter assay (HEK-Blue cells, SEAP reporter, R848 stimulation).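 Note: compounds tested from 0.05 nM to 50 µM, 22 h at 37 °C, SEAP measured with HEK-Blue Detection, inhibition relative to agonist plus DMSO versus a known inhibitor.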 Conditions: read-out: TLR8 IC50, HEK-Blue cells overexpressing human TLR8, R848 15.9 μM.
Chain of human TLR8 (Q9NR97 27-1041): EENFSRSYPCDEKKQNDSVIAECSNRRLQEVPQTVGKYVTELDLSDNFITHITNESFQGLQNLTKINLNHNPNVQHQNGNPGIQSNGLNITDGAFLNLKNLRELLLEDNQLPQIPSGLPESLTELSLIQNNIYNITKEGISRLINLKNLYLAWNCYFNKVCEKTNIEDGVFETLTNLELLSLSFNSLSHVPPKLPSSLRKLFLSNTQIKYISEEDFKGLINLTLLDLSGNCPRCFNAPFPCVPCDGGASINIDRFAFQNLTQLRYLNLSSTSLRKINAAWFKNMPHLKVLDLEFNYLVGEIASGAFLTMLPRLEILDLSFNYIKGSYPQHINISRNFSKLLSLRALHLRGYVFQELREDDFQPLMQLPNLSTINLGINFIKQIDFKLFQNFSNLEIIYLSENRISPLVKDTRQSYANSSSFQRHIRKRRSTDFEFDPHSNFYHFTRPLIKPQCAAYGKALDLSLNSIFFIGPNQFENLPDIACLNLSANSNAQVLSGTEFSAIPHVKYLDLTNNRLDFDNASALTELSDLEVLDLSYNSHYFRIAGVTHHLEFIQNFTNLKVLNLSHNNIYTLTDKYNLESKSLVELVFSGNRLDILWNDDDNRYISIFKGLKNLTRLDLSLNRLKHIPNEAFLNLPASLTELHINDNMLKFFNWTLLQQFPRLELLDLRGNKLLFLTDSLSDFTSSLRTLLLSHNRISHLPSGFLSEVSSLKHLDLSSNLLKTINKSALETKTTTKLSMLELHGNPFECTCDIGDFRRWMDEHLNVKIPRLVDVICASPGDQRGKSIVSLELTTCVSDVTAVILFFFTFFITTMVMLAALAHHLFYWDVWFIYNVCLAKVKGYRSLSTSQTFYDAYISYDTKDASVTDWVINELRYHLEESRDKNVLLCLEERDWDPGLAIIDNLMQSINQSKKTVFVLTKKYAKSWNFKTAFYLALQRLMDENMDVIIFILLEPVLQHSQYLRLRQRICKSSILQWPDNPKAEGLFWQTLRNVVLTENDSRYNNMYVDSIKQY

Chain of human TLR7 (Q9NYK1 27-1049): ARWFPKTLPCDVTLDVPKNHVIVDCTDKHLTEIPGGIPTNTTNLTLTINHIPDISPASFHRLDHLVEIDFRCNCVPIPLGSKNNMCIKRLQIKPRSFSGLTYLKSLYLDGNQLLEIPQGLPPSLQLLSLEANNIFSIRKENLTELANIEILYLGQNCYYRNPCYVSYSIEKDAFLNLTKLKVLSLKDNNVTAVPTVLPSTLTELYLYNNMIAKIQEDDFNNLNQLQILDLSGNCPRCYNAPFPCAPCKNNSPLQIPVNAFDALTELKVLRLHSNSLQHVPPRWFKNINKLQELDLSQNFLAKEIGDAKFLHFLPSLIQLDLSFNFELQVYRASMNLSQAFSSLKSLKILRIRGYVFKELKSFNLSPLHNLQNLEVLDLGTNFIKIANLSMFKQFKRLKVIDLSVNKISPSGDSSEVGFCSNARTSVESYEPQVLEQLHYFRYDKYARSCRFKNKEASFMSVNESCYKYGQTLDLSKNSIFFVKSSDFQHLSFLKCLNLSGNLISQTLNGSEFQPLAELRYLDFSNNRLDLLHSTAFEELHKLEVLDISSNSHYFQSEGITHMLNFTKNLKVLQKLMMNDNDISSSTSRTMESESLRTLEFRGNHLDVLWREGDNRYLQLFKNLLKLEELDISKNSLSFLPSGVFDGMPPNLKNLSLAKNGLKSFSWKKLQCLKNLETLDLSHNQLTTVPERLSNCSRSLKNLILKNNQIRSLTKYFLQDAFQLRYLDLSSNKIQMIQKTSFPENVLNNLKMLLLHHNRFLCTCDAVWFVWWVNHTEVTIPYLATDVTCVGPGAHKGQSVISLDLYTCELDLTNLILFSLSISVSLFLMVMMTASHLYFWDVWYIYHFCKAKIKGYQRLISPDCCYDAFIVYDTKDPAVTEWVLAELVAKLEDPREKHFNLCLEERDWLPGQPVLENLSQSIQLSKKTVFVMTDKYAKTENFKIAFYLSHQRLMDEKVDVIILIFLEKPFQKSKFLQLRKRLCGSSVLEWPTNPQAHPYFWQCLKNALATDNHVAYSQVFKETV

On to `CCc1c(-c2ccnc(Cl)c2)[nH]c2ccc(C3CCN(C4CCN(CC(C)C)CC4)CC3)cc12` [Example 758, 2-(2-chloropyridin-4-yl)-3-ethyl-5-(1′-isobutyl-[1,4′-bipiperidin]-4-yl)-1H-indole], for which the values for the concentration for half-maximal inhibition (IC50) in test [1], in test [2] and in test [3] were 751 nM, 967 nM and 136 nM, respectively.
Taken in the same sequence, the figures for `CCc1c(-c2ccnc(F)c2)[nH]c2ccc(C3CCN(C4CCN(CC(C)C)CC4)CC3)cc12` [Example 759, 3-ethyl-2-(2-fluoropyridin-4-yl)-5-(1′-isobutyl-[1,4′-bipiperidin]-4-yl)-1H-indole] were 655 nM, 1520 nM and 257 nM.
Taken in the same sequence, the figures for `CCc1c(-c2cc(Cl)ncc2F)[nH]c2ccc(C3CCN(C4CCN(CC(C)C)CC4)CC3)cc12` [Example 760, 2-(2-chloro-5-fluoropyridin-4-yl)-3-ethyl-5-(1′-isobutyl-[1,4′-bipiperidin]-4-yl)-1H-indole] were 2390 nM, 537 nM and 107 nM.
With `CCc1c(-c2cc(F)nc(F)c2)[nH]c2ccc(C3CCN(C4CCN(CC(C)C)CC4)CC3)cc12` [Example 761, 2-(2,6-difluoropyridin-4-yl)-3-ethyl-5-(1′-isobutyl-[1,4′-bipiperidin]-4-yl)-1H-indole], the IC50 in test [1] was found to be 800 nM; in test [2], 4260 nM; in test [3], 375 nM.
Taken in the same sequence, the figures for `CCc1c(-c2ccnc(C(=O)OC)c2)[nH]c2ccc(C3CCN(C4CCN(CC(C)C)CC4)CC3)cc12` [Example 762, methyl 4-(3-ethyl-5-(1′-isobutyl-[1,4′-bipiperidin]-4-yl)-1H-indol-2-yl)picolinate] were 223 nM, 708 nM and 14.3 nM.
Taken in the same sequence, the figures for `CCc1c(-c2cc(Cl)ncc2OC)[nH]c2ccc(C3CCN(C4CCN(CC(C)C)CC4)CC3)cc12` [Example 763, 2-(2-chloro-5-methoxypyridin-4-yl)-3-ethyl-5-(1′-isobutyl-[1,4′-bipiperidin]-4-yl)-1H-indole] were 1900 nM, 4950 nM and 514 nM.
Taken in the same sequence, the figures for `Cc1cc(-c2[nH]c3ccc(C4CCN(C(=O)[C@H]5CC[C@H](N)CC5)CC4)cc3c2C(C)C)ccn1` [Example 764, ((1r,4r)-4-aminocyclohexyl) (4-(3-isopropyl-2-(2-methylpyridin-4-yl)-1H-indol-5-yl)piperidin-1-yl)methanone] were 603 nM, 174 nM and 262 nM.
For the compound `CCc1c(-c2ccnc(O)c2)[nH]c2ccc(C3CCN(C4CCN(CC(C)C)CC4)CC3)cc12` [Example 765, 4-(3-ethyl-5-(1′-isobutyl-[1,4′-bipiperidin]-4-yl)-1H-indol-2-yl)pyridin-2-ol], the 50% inhibitory concentration (IC50) in test [1] is 181 nM; in test [2], 11000 nM; in test [3], 341 nM.
Taken in the same sequence, the figures for `CCc1c(-c2ccnc(NC(C)=O)c2)[nH]c2ccc(C3CCN(C4CCN(CC(C)C)CC4)CC3)cc12` [Example 766, N-(4-(3-ethyl-5-(1′-isobutyl-[1,4′-bipiperidin]-4-yl)-1H-indol-2-yl)pyridin-2-yl)acetamide] were 83 nM, 3980 nM and 245 nM.
Taken in the same sequence, the figures for `CCc1c(-c2ccnc(N(C)C)c2)[nH]c2ccc(C3CCN(C4CCN(CC(C)C)CC4)CC3)cc12` [Example 767, 4-(3-ethyl-5-(1′-isobutyl-[1,4′-bipiperidin]-4-yl)-1H-indol-2-yl)-N,N-dimethylpyridin-2-amine] were 98 nM, 3750 nM and 1230 nM.
In the case of `CCOc1cc(-c2[nH]c3ccc(C4CCN(C5CCN(CC(C)C)CC5)CC4)cc3c2CC)ccn1` [Example 768, 2-(2-ethoxypyridin-4-yl)-3-ethyl-5-(1′-isobutyl-[1,4′-bipiperidin]-4-yl)-1H-indole], the 50% inhibitory concentration (IC50) is 1280 nM in test [1], 7220 nM in test [2] and 1190 nM in test [3].

Usually IC50 stands for the concentration needed to halve the response being measured.
